Patent US5225528A, “Cyclic hexapeptide oxytocin antagonists” (priority 1990, dated 1993)
Read-outs that look alike come from different tables or passages of the source. Numbered stars: 1 amine (or outer) side, 2 acyl side, 3 side chain; on linkers, the order of the positions; unused ones are H or OH. Square brackets hold non-standard residues; d marks the D form. Peptide text beside a SMILES is read from it. * marks the point of attachment. X2 = O=C(OCc1ccccc1)N1CCN([*:1])[C@H](C(=O)[*:2])C1; dPiz(1,6-dehydro) = O=C(O)[C@H]1CCC=NN1; dNMeY = CN[C@H](Cc1ccc(O)cc1)C(=O)O; Pip(4-aza) = O=C(O)[C@@H]1CNCCN1; dNMeF = CN[C@H](Cc1ccccc1)C(=O)O; dOrn = NCCC[C@@H](N)C(=O)O; Pip = O=C(O)[C@@H]1CCCCN1; dPip = O=C(O)[C@H]1CCCCN1; Cbz = O=C(OCc1ccccc1)*

Assays:
AVP-V1 sites = biological target: T1, AVP-V1 sites (Rattus norvegicus, UniProt P30560); assay: [^3 H]AVP binding to crude membrane preparation of male rat liver (AVP-V1 sites)
T1 construct: crude membrane preparation of male rat liver (AVP-V1 sites); from tissue; host or cells: male rat liver, crude membranes
Method: (§1) Nonspecific binding (5-10% of the total binding) was determined using 10 μM unlabeled AVP, and the binding reaction was terminated by filtration as described above for the [^3 H]OT binding assay.

uterine OT receptors = biological target: T2, uterine OT receptors (Rattus norvegicus, UniProt P70536); assay: [^3 H]OT binding to uterine OT receptors, crude membrane preparation of uteri from DES-treated rats; conditions: for inhibition at 0.1 µM: @ 100 (nM)
T2 construct: from tissue; host or cells: uterus of DES-treated rats, crude membranes
T2 sequence (P70536 1-388): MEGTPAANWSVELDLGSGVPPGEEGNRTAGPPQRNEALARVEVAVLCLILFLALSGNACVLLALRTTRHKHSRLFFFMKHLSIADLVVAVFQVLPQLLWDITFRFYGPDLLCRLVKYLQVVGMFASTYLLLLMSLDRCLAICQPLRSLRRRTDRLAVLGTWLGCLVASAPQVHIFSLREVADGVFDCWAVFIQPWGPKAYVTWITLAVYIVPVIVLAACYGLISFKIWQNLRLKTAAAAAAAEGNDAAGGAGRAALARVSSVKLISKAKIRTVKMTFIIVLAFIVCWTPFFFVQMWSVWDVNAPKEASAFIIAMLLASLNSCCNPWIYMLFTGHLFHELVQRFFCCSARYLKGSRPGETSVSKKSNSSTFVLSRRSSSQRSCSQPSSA
Method: Competition studies were conducted at equilibrium (60 minutes; 22° C.) using 1 nM [^3 H]OT in the following assay buffer: 50 mM Tris-HCl, 5 mM MgCl2, and 0.1% BSA, pH 7.4.

AVP-V2 sites = biological target: T3, AVP-V2 sites (Rattus norvegicus, UniProt Q00788); assay: [^3 H]AVP binding to crude membrane preparation of male rat kidney medulla (AVP-V2 sites)
T3 construct: male rat liver (AVP-V1 sites) or kidney medulla (AVP-V2 sites); from tissue; host or cells: male rat kidney medulla, crude membranes
Method: as §1

[1] = Receptor Binding Results IC50 (nM) [^3 H]-AVP-V1
[2] = rat kidney medulla membranes, 2 nM [^3 H]AVP, read-out: Receptor Binding Results IC50 (nM) [^3 H]-AVP-V2
[3] = 1 h, read-out: [^3 H]OT: percent inhibition of radioligand at the given concentration
[4] = Receptor Binding Results IC50 (nM) [^3 H]-AVP-V2
[5] = Receptor Binding Results IC50 (nM) [^3 H]OT
[6] = read-out: Receptor Binding Results IC50 (nM) [^3 H]-AVP-V1
[7] = rat uterus membranes, 1 nM [^3 H]OT, read-out: Receptor Binding Results IC50 (nM) [^3 H]OT

T1 sequence (P30560 whole entry): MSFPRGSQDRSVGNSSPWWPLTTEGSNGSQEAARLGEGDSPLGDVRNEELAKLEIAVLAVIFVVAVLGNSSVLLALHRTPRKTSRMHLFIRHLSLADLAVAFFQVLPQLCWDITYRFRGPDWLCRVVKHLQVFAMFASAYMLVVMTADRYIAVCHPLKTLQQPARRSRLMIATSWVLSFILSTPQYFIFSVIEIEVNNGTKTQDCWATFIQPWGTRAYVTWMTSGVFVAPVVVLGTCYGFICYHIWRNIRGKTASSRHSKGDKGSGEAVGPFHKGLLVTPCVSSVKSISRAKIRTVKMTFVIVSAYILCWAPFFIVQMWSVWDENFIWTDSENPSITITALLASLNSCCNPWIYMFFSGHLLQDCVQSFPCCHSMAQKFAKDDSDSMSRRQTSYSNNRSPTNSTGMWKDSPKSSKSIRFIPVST
T3 sequence (Q00788 whole entry): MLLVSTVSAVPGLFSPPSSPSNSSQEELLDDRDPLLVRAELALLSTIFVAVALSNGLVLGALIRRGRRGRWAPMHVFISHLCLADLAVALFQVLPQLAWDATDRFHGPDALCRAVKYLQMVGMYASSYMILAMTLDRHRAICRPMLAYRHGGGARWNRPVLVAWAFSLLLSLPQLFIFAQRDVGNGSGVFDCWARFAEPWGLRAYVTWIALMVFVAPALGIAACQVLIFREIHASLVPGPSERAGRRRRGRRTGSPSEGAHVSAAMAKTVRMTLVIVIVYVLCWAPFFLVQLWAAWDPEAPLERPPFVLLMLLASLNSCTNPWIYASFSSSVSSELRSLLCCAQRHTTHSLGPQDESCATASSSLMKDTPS

Structure (SMILES)	IC50 (AVP-V1 sites; [1]) [nM]	IC50 (AVP-V2 sites; [2]) [nM]	IC50 (AVP-V2 sites; [4]) [nM]	IC50 (uterine OT receptors; [7]) [nM]	further results
CC[C@H](C)[C@@H]1NC(=O)[C@@H](Cc2ccccc2)NC(=O)[C@@H]2CCCN2C(=O)[C@@H](CCCNC(=O)OCc2ccccc2)NC(=O)[C@@H]2CCCCN2C(=O)[C@H]2CCCCN2C1=O [Example 27, Cyclo[D-phenylalanyl-L-isoleucyl-D-pipecolyl-L-pipecolyl-D-(carbobenzyloxy)-ornithyl-L-prolyl]] (cyclo(I[dPip][Pip][dOrn](Cbz)P[dF]))	10000	10000	–	–	inhibition at 1 µM (uterine OT receptors; 1 h, @ 1,000 (nM), read-out: [^3 H]OT: percent inhibition of radioligand at the given concentration): 79%
CC[C@H](C)[C@@H]1NC(=O)[C@@H](Cc2c[nH]c3ccccc23)NC(=O)[C@@H]2CCCN2C(=O)[C@@H](Cc2c[nH]cn2)NC(=O)[C@H](CCCCNC(=O)OCc2ccccc2)NC(=O)[C@H]2CCCCN2C1=O [Example 38, Cyclo[D-tryptophanyl-L-isoleucyl-D-pipecolyl-L-(carbobenzyloxy)lysyl-D-histidyl-L-prolyl]] (cyclo(I[dPip]K(Cbz)[dH]P[dW]))	> 1000	10000	–	–	inhibition at 0.1 µM (uterine OT receptors; [3]): 60%
CC[C@H](C)[C@@H]1NC(=O)[C@@H](Cc2ccccc2)NC(=O)[C@@H]2CCCN2C(=O)[C@@H](Cc2ccc(O)cc2)N(C)C(=O)[C@@H]2CCCCN2C(=O)[C@H]2CCCCN2C1=O [Example 46, Cyclo[D-phenylalanyl-L-isoleucyl-D-pipecolyl-L-pipecolyl-D-(N^α Methyl)tyrosyl-L-prolyl]] (cyclo(I[dPip][Pip][dNMeY]P[dF]))	10000	–	> 1000	–	inhibition at 0.1 µM (uterine OT receptors; [3]): 60%
CC[C@H](C)[C@@H]1NC(=O)[C@@H](Cc2c[nH]c3ccccc23)NC(=O)[C@@H]2CCCN2C(=O)[C@@H](Cc2ccccc2)N(C)C(=O)[C@@H]2CNCCN2C(=O)[C@H]2CCCCN2C1=O [Example 92, c-[D-Tryptophanyl-L-isoleucinyl-D-pipecolyl-L-piperazin-2-yl-D-(N^α -methyl)phenylalanyl-L-prolyl]] (cyclo(I[dPip][Pip(4-aza)][dNMeF]P[dW]))	> 10000	–	–	–	IC50 (uterine OT receptors; [5]): 7.7 nM; IC50 (AVP-V2 sites; read-out: Receptor Binding Results IC50 (nM) [^3 H]-AVP-V2): 750 nM
CC[C@H](C)[C@@H]1NC(=O)[C@@H](Cc2c[nH]c3ccccc23)NC(=O)[C@@H]2CCCN2C(=O)[C@@H](Cc2c[nH]c3ccccc23)NC(=O)[C@@H]2CNCCN2C(=O)[C@H]2CCCCN2C1=O [Example 88, c-[D-Trytophanyl-L-isoleucinyl-D-pipecolyl-L-piperazin-2-yl-D-tryptophanyl-L-prolyl]] (cyclo(I[dPip][Pip(4-aza)][dW]P[dW]))	–	–	1000	18	IC50 (AVP-V1 sites; [6]): 5780 nM
CC[C@H](C)[C@@H]1NC(=O)[C@@H](Cc2ccccc2)NC(=O)[C@@H]2CCCN2C(=O)[C@@H](Cc2ccccc2)NC(=O)[C@H](CC(N)=O)NC(=O)[C@H]([C@@H](C)O)NC1=O [Example 98, c-[D-Phenylalanyl-L-isoleucyl-L-threonyl-L-asparagyl-D-phenylalanyl-L-prolyl]] (cyclo(ITN[dF]P[dF]))	> 10000	> 10000	–	7700	–
CC[C@H](C)[C@@H]1NC(=O)[C@@H](Cc2ccccc2)NC(=O)[C@@H]2CCCN2C(=O)[C@@H](Cc2c[nH]cn2)NC(=O)[C@@H]2CN(C(=O)OCc3ccccc3)CCN2C(=O)[C@H]2CCCCN2C1=O [Example 81, c-[D-Phenylalanyl-L-isoleucinyl-D-pipecolyl-L-piperazin-2yl(4Cbz)-D-histidinyl-L-prolyl]] (cyclo(I[dPip][X2][dH]P[dF]))	> 1000	–	> 1000	77	–
CC[C@H](C)[C@@H]1NC(=O)[C@@H](Cc2c[nH]c3ccccc23)NC(=O)[C@@H]2CCCN2C(=O)[C@@H](Cc2cnc[nH]2)NC(=O)[C@@H]2CCCCN2C(=O)[C@H]2CCC=NN2C1=O [Example 184, c-[D-Tryptophanyl-L-isoleucinyl-D-Δ-piperazyl-L-pipecolyl-D-histidyl-L-prolyl]] (cyclo(I[dPiz(1,6-dehydro)][Pip][dH]P[dW]))	–	1050	–	–	IC50 (AVP-V1 sites; [6]): 3980 nM; IC50 (uterine OT receptors; [5]): 6 nM
